The Deep4Chem optical property database
Values joined by “and” are separate entries in the source; they are usually repeats but may differ in a detail not shown here. Equal values may be shown once. Each block holds one compound with its values, some of them ahead of it.

Test: solvent given as SMILES

SMILES: OC1(c2ccc(-c3cccs3)s2)CCCCC1
absorption maximum (in C1CCOC1): 312 nm
absorption maximum (in CC#N): 309 nm
absorption maximum (in CCCCCC): 308 nm
absorption maximum (in CCO): 309 nm
absorption maximum (in OCCOCCO): 317 nm
absorption maximum (in c1ccncc1): 315 nm

SMILES: CCCc1cc2c(s1)-c1cc3c(cc1NB2c1ccccc1)-c1sc(CCC)cc1B(c1ccccc1)N3
absorption maximum (in ClCCl): 411 nm

SMILES: CI
absorption maximum (in CCCCCC): 259 nm

SMILES: CC(C)(C)c1ccc(C(C)(C)C)c(N2C(=O)c3cccc4c(-c5ccc(-c6ccc(N(c7ccccc7)c7ccccc7)cc6)s5)ccc(c34)C2=O)c1
absorption maximum (in CO): 447 nm
absorption maximum (in CS(C)=O): 445 nm
absorption maximum (in Cc1ccccc1): 440 nm

SMILES: C(S/C=C/c1ccc(-c2ccc(/C=C/SC=C3CCCCCC3)cc2)cc1)=C1CCCCCC1
absorption maximum (in ClCCl): 353 nm

SMILES: Cc1cc(-c2ccc(-n3c4ccccc4c4ccccc43)cc2)nc(-c2ccc(-c3ccccc3)cc2)n1
absorption maximum (in C1CCOC1): 341 nm
absorption maximum (in CN(C)C=O): 341 nm
absorption maximum (in Cc1ccccc1): 341 nm
absorption maximum (in ClC(Cl)Cl): 341 nm

SMILES: O=[N+]([O-])c1ccc(-n2c3ccccc3c3c2c2ccccc2n3-c2ccccc2)cc1
absorption maximum (in Cc1ccccc1): 418 nm

SMILES: CN(C)c1ccc(/C=C/c2cc[n+](CCCCC[n+]3ccc(/C=C/c4ccc(N(C)C)cc4)cc3)cc2)cc1
absorption maximum (in CC1COC(=O)O1): 478 nm
absorption maximum (in CC#N): 478 nm
absorption maximum (in CC(C)=O): 476 nm
absorption maximum (in CC(C)O): 486 nm
absorption maximum (in CCO): 492 nm
absorption maximum (in CN(C)C=O): 478 nm
absorption maximum (in CO): 484 nm
absorption maximum (in CS(C)=O): 479 nm
absorption maximum (in ClC(Cl)Cl): 494 nm
absorption maximum (in O): 457 nm
absorption maximum (in c1ccncc1): 490 nm

SMILES: CCCCCCCCN1C(=O)c2ccc3c4c(-c5ccc6c7ccccc7n(-c7ccccc7)c6c5)cc5c6c(ccc(c7c(-c8ccc9c%10ccccc%10n(-c%10ccccc%10)c9c8)cc(c2c37)C1=O)c64)C(=O)N(CCCCCCCC)C5=O
absorption maximum (in ClC(Cl)Cl): 577 nm

SMILES: COC(=O)/C(C#N)=c1\s/c(=c2/s/c(=C(/C#N)C(=O)OC)c3cc(-c4ccc(F)cc4)sc23)c2sc(-c3ccc(F)cc3)cc12
absorption maximum (in Cc1ccccc1): 602 nm

SMILES: COc1cnc(-c2cc[n+](C3=C(F)C(F)(F)C(F)(F)[C-]3F)cc2)s1
absorption maximum (in CC#N): 407 nm
absorption maximum (in CC(C)=O): 408 nm
absorption maximum (in CCO): 409 nm
absorption maximum (in CN(C)C=O): 410 nm
absorption maximum (in CO): 407 nm
absorption maximum (in CS(C)=O): 410 nm
absorption maximum (in ClC(Cl)Cl): 433 nm
absorption maximum (in ClCCl): 430 nm

SMILES: c1ccc(N(c2ccccc2)c2ccc3c(ccc4nc5ccc6cc(N(c7ccccc7)c7ccccc7)ccc6c5nc43)c2)cc1
absorption maximum (in C1CCCCC1): 471 nm
absorption maximum (in C1CCOC1): 474 nm
absorption maximum (in CN(C)C=O): 477 nm
absorption maximum (in Cc1ccccc1): 473 nm
absorption maximum (in ClCCl): 476 nm

SMILES: CC(C)(C)c1ccc(Oc2c3c4c(cc(Oc5ccc(C(C)(C)C)cc5)c5c6c(Oc7ccc(C(C)(C)C)cc7)c(Oc7ccc(C(C)(C)C)cc7)c7c8c(cc(Oc9ccc(C(C)(C)C)cc9)c(c(c2Oc2ccc(C(C)(C)C)cc2)c45)c86)C(=O)OC7=O)C(=O)OC3=O)cc1
absorption maximum (in ClC(Cl)Cl): 571 nm

SMILES: Cc1c(C)c(-c2ccc(-c3cccnc3)cc2)c(C)c(C)c1B(c1c(C)c(C)c(-c2ccc(-c3cccnc3)cc2)c(C)c1C)c1c(C)c(C)c(-c2ccc(-c3cccnc3)cc2)c(C)c1C
absorption maximum (in ClCCl): 331 nm

SMILES: CCn1c2ccsc2c2c3nsnc3c3c4sccc4n(CC)c3c21
absorption maximum (in C1CCOC1): 436 nm
absorption maximum (in CCOC(C)=O): 433 nm
absorption maximum (in CN(C)C=O): 441 nm
absorption maximum (in Cc1ccccc1): 432 nm
absorption maximum (in ClCCl): 436 nm

SMILES: O=C1O[B-]2(OC1=O)OC(c1ccccc1)=CC(c1ccccc1)=[O+]2
absorption maximum (in CC#N): 384 nm
absorption maximum (in ClC(Cl)(Cl)Cl): 384 nm

SMILES: c1ccc(N2c3ccc4ccccc4c3-c3c4ccccc4cn[n+]3[B-]2(c2ccccc2)c2ccccc2)cc1
absorption maximum (in Cc1ccccc1): 524 nm

SMILES: N#CC(C#N)=C(/C=C/c1cc2c3c(c1)CCCN3CCC2)c1ccc2c3c(cccc13)CC2
absorption maximum (in C1CCOC1): 527 nm
absorption maximum (in CC#N): 540 nm
absorption maximum (in CC(C)=O): 535 nm
absorption maximum (in CCOC(C)=O): 523 nm
absorption maximum (in CN(C)C=O): 550 nm
absorption maximum (in CO): 541 nm
absorption maximum (in Cc1ccccc1): 526 nm
absorption maximum (in ClC(Cl)Cl): 538 nm

SMILES: CCCN1C(=O)C(=CC=CC=C2Oc3ccccc3N2CCCS(=O)(=O)[O-])C(=O)N(CCC)C1=S
absorption maximum (in C1COCCO1): 565 nm
absorption maximum (in CC(C)=O): 559 nm
absorption maximum (in CCCCO): 562 nm
absorption maximum (in CCCO): 561 nm
absorption maximum (in CCO): 558 nm
absorption maximum (in CO): 554 nm
absorption maximum (in ClC(Cl)Cl): 568 nm
absorption maximum (in O): 530 nm

SMILES: CSc1nc(-c2ccc(-n3c4ccccc4c4ccccc43)cc2)cc(-c2ccc(-n3c4ccccc4c4ccccc43)cc2)n1
absorption maximum (in C1CCOC1): 363 nm
absorption maximum (in CN(C)C=O): 364 nm
absorption maximum (in Cc1ccccc1): 364 nm
absorption maximum (in ClC(Cl)Cl): 364 nm

SMILES: CCCCn1c2ccc(-c3ccc(C(F)(F)F)cc3)cc2c2ccc3c4cc(-c5ccc(C(F)(F)F)cc5)ccc4n(CCCC)c3c21
absorption maximum (in ClC(Cl)Cl): 301 nm

SMILES: CCCC(=O)c1c2c(c(C(=O)CCC)c3c1OC(CC(=O)OC)(C(=O)O)O3)OCO2
absorption maximum (in CC#N): 424 nm
absorption maximum (in CCO): 445 nm
absorption maximum (in CO): 442 nm
absorption maximum (in ClCCl): 423 nm
absorption maximum (in O): 448 nm

SMILES: CCCC1(CCC)c2cc(C=C(C#Cc3ccccc3)C#Cc3ccccc3)ccc2-c2ccc(C=C(C#Cc3ccccc3)C#Cc3ccccc3)cc21
absorption maximum (in ClC(Cl)Cl): 422 nm

SMILES: N#Cc1ccc(-n2cccc2)cc1
absorption maximum (in C1CCOC1): 287 nm
absorption maximum (in CC#N): 287 nm
absorption maximum (in CCCCCC): 287 nm
absorption maximum (in CCOCC): 287 nm
absorption maximum (in ClCCl): 287 nm

SMILES: c1cc2ccc3ccc4cc3c2cc1c1ccc2ccc3ccc(cc3c2c1)c1ccc2ccc3ccc4cc3c2c1
absorption maximum (in Cc1ccccc1): 375 nm

SMILES: CC1=CC(C)=[N+]2C1=C(c1ccc(C(=O)OC3C[C@@H]4CC[C@]3(C)C4(C)C)cc1)c1c(C)cc(C)n1[B-]2(F)F (some centres not stated)
absorption maximum (in Cc1ccccc1): 506 nm

SMILES: CCCCCCCCCCCCN1C(=O)c2c(c3ccc4cc(-c5ccc(OC)cc5)c(OC)cc4c3c3c2ccc2cc(-c4ccc(OC)cc4)c(OC)cc23)C1=O
absorption maximum (in ClCCl): 443 nm

SMILES: CCCCCCc1ccc2c3c(ccc2c1)O[B-](c1ccccc1)(c1ccccc1)[N+](c1cc([N+]2=Cc4c(ccc5cc(CCCCCC)ccc45)O[B-]2(c2ccccc2)c2ccccc2)cc([N+]2=Cc4c(ccc5cc(CCCCCC)ccc45)O[B-]2(c2ccccc2)c2ccccc2)c1)=C3
absorption maximum (in C1CCOC1): 445 nm
absorption maximum (in CC#N): 440 nm
absorption maximum (in Cc1ccccc1): 453 nm
absorption maximum (in ClCCl): 450 nm

SMILES: FC(F)(F)c1cc2n(n1)[B-]1(c3ccccc3-c3ccccc31)[n+]1ccc3ccccc3c1-2
absorption maximum (in C1CCCCC1): 373 nm
absorption maximum (in Cc1ccccc1): 375 nm
absorption maximum (in ClCCl): 373 nm

Other lines, results leading:

absorption maximum (in ClC(Cl)Cl): 385 nm
SMILES: CCOC(=O)C1(O)c2cc3ccc4cccc5ccc(c2C(=O)N1C(C)(C)C)c3c45 (configuration not stated)

absorption maximum (in CCO): 379 nm
SMILES: Cc1c(C)n2c(COC(=O)c3ccccc3O)c(C)c(=O)n2c1=O

absorption maximum (in ClCCl): 406 nm
SMILES: [O-][n+]1c(/C=C/c2ccc(/C=C/c3ccccc3)cc2)nc(N2CCOCC2)c2c1CCCC2

absorption maximum (in ClCCl): 339 nm
SMILES: COc1ccc(-c2ccc(C(=O)NC(C)(C)C)c3c2ccc2c4ccccc4c4ccccc4c23)cc1

absorption maximum (in CS(C)=O): 350 nm
SMILES: COc1cccc(-c2nc3sc4ccccc4c3s2)c1

absorption maximum (in ClC(Cl)Cl): 398.5 nm
SMILES: F[B-]1(F)OC(c2ccc(C(F)(F)F)cc2)=Cc2c3ccccc3cc[n+]21

absorption maximum (in C1CCCCC1): 335 nm
absorption maximum (in C1COCCO1): 335 nm
absorption maximum (in CCCCCC): 333 nm
absorption maximum (in CCOC(C)=O): 335 nm
absorption maximum (in CN(C)C=O): 338 nm
absorption maximum (in ClCCl): 336 nm
absorption maximum (in O): 338 nm
SMILES: Cc1ccc(C(=O)/C=C2\C(=O)Nc3ccccc32)cc1C

absorption maximum (in ClCCl): 383 nm
SMILES: N#Cc1ccc(-c2cn3cc(-c4ccccc4)c[n+]3[n-]2)cc1

absorption maximum (in CCO): 437 nm
SMILES: CC(NC(=O)OC(C)(C)C)C(=O)OCc1ccc2c3cccc4cccc(c5cccc1c52)c43 (configuration not stated)

absorption maximum (in ClCCl): 324 nm
SMILES: CCOC(=O)c1c(-c2cc3ccccc3oc2=O)nn(-c2cccc(F)c2)c1C(=O)OCC

absorption maximum (in ClCCl): 426 nm
SMILES: C[Si](C)(C)C#Cc1cc(C#C[Si](C)(C)C)c2ccc3c(C(=O)c4ccccc4)cc(C#C[Si](C)(C)C)c4ccc1c2c43

absorption maximum (in C1CCOC1): 354 nm
absorption maximum (in CC#N): 354 nm and 352 nm
absorption maximum (in CCCCCC): 352 nm
SMILES: CC1=N/C(=C\c2cccc(N(C)C)c2)C(=O)N1C

absorption maximum (in ClCCl): 314 nm
SMILES: Cc1cc2c3ccccc3oc2c2[nH]c3ccccc3c12

absorption maximum (in CS(C)=O): 365 nm
SMILES: CCOC(=O)C1=C(N)n2c(=O)c3ccccc3c(=O)n2C1c1ccc(C)cc1 (configuration not stated)

absorption maximum (in CC#N): 359 nm
absorption maximum (in CC(C)O): 360 nm
absorption maximum (in CCO): 359 nm
absorption maximum (in CO): 361 nm
absorption maximum (in ClC(Cl)Cl): 362 nm
absorption maximum (in ClCCl): 362 nm
SMILES: Cc1cccc2cc3c(=O)n(C)c(=O)n(C)c3nc12

absorption maximum (in CO): 448 nm
SMILES: O=C1C=C(Nc2cc(F)cc(F)c2)C(=O)c2ccccc21

absorption maximum (in O): 260 nm
SMILES: COc1cc(C(=O)O)cc(OC)c1O

absorption maximum (in ClC(Cl)Cl): 370 nm
SMILES: CCCCCCN1C(=O)c2cccc3cc(/N=C\c4nc5ccccc5s4)cc(c23)C1=O

absorption maximum (in C1CCCCC1): 295 nm
SMILES: CC(C)(C)[Si](C)(C)c1cccc2ccccc12

absorption maximum (in C1CCCCC1): 311 nm
SMILES: C[Si](C)(C)c1cccc2c(C#N)cccc12

absorption maximum (in CCO): 334 nm
SMILES: C#Cc1ccc2cc3c(C)cc(=O)oc3cc2c1

absorption maximum (in C1CCOC1): 422 nm
SMILES: CCCCCOc1cc2oc(=O)c3c4occc4c4ccc5cccc6c(c1)c2c3c4c56

absorption maximum (in O): 455 nm
SMILES: CCOC(=O)CCCCCn1c2ccc(N)cc2c(=O)c2cc(N)ccc21

absorption maximum (in ClCCl): 391 nm
SMILES: Cc1ccc(C(=O)c2c(C)c3ccc4cccc5c6cccc7ccc2c(c76)c3c45)cc1

absorption maximum (in CC#N): 391 nm
absorption maximum (in CO): 395 nm
absorption maximum (in ClCCl): 392 nm
SMILES: Cc1cccc(-c2[nH]c(=O)n3c2-c2ccccc2C3=O)c1O

absorption maximum (in O): 304 nm
SMILES: O=S(=O)([O-])c1cccc2c(O)cccc12

absorption maximum (in CCO): 375 nm
SMILES: Cc1c(C)n2c(COC(=O)c3ccc(F)cc3)c(C)c(=O)n2c1=O
